Among the test systems are OVCAR-5 ovarian; SK-MEL-5 melanoma; UACC-257 melanoma; HCT-15 colon; HS 578T breast; SK-MEL-2 melanoma; SF-295 CNS; SK-OV-3 ovarian.
Common to all, as to test: inhibition of tumour cell growth, NCI panel, 48 h

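Assay format: 96-well plates, 48-hour exposure. GI50 is the concentration that inhibits growth by half. TGI is the concentration that stops growth completely.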

Take `Cc1cc(O)c(C2=NN(c3ccc(S(N)(=O)=O)cc3)C(/C=C/c3ccccc3)C2)cc1Cl` (stereo not drawn): the GI50 was 3.18 µM in the test with OVCAR-5 ovarian; 4.23 µM in the test with SK-MEL-5 melanoma; 14.5 µM in the test on UACC-257 melanoma; 18.9 µM in the test on HCT-15 colon; 12.3 µM in the test on HS 578T breast; 16.8 µM in the test with SK-MEL-2 melanoma. In addition, the results for the GI50 in the test on SF-295 CNS and in the test with SK-OV-3 ovarian were 2.36 µM and 5.52 µM, respectively. Moreover, the TGI in the test on OVCAR-5 ovarian is 14.7 µM; with SK-MEL-5 melanoma it was 16.4 µM; in the test on UACC-257 melanoma, 45.7 µM; in the test on HCT-15 colon, greater than 100 µM; in the test on HS 578T breast, 49.7 µM; in the test with SK-MEL-2 melanoma, 58.2 µM. Further, the TGI in the test on SF-295 CNS stood at 11.9 µM; with SK-OV-3 ovarian, 17.9 µM.
As to `CC(C)(C)OC(=O)NCc1cccc(N=C=S)c1`, the GI50 in the test with OVCAR-5 ovarian was 20.6 µM; with SK-MEL-5 melanoma, 14.9 µM; with UACC-257 melanoma, 21.7 µM; in the test with HCT-15 colon, 16.6 µM; in the test with HS 578T breast it was 24.6 µM; in the test on SK-MEL-2 melanoma, 21.3 µM. The GI50 in the test with SF-295 CNS is 17.5 µM; with SK-OV-3 ovarian, 35.5 µM. Also, the TGI in the test with OVCAR-5 ovarian was 74.9 µM; in the test on SK-MEL-5 melanoma, 28.4 µM; with UACC-257 melanoma, 54.4 µM; with HCT-15 colon it was 36.5 µM; in the test with HS 578T breast, greater than 84.8 µM; in the test on SK-MEL-2 melanoma, 45.7 µM. Also, the values for the TGI with SF-295 CNS and with SK-OV-3 ovarian were 40.9 µM and greater than 84.9 µM, respectively.
For the compound `COC(=O)c1cc(OC)c(OC)c(OC)c1-c1cc2c(cc1C=O)OCO2`, the TGI in the test on OVCAR-5 ovarian, in the test with SK-MEL-5 melanoma, in the test with UACC-257 melanoma, in the test on HCT-15 colon, with HS 578T breast and in the test with SK-MEL-2 melanoma was greater than 10 µM each time. The TGI with SF-295 CNS and in the test with SK-OV-3 ovarian was greater than 10 µM throughout.
Regarding `CC(=O)/C=C/c1ccc(OCc2ccc(Cl)cc2)cc1`, the GI50 in the test on OVCAR-5 ovarian was greater than 1000 µM; with SK-MEL-5 melanoma it was 140 µM; with UACC-257 melanoma it was 274 µM; with HCT-15 colon it was 498 µM; with HS 578T breast, greater than 1000 µM; with SK-MEL-2 melanoma, 473 µM. For the same compound, the figures for the GI50 with SF-295 CNS and in the test on SK-OV-3 ovarian were 679 µM and greater than 1000 µM, respectively. Moreover, the TGI was greater than 1000 µM with OVCAR-5 ovarian; 395 µM in the test on SK-MEL-5 melanoma; greater than 1000 µM in the test with UACC-257 melanoma; greater than 1000 µM in the test on HCT-15 colon; greater than 1000 µM with HS 578T breast; greater than 1000 µM with SK-MEL-2 melanoma. Besides, the TGI in the test with SF-295 CNS and in the test with SK-OV-3 ovarian was greater than 1000 µM each time.
Consider `CC(=O)Nc1n[n+]([O-])c2cc(C)ccc2[n+]1[O-]`, for which the TGI is 33.5 µM in the test on OVCAR-5 ovarian; 3.87 µM in the test with SK-MEL-5 melanoma; 18.7 µM with UACC-257 melanoma; 14.9 µM in the test with HCT-15 colon; 40.7 µM in the test on HS 578T breast; 26.5 µM in the test on SK-MEL-2 melanoma. For the same compound, the TGI in the test with SF-295 CNS turned out to be 12.6 µM; in the test on SK-OV-3 ovarian, 20.3 µM.
`CN(C)c1ccc(/C=N/S(=O)(=O)c2ccc(-n3c(-c4ccccc4)nc4c(Br)cc(Br)cc4c3=O)cc2)cc1`: the GI50 was greater than 69.5 µM with OVCAR-5 ovarian; 15.3 µM in the test on SK-MEL-5 melanoma; 44.6 µM with UACC-257 melanoma; 51.1 µM with HCT-15 colon; 32.6 µM with HS 578T breast; 23.6 µM with SK-MEL-2 melanoma. Moreover, the GI50 in the test on SF-295 CNS is 35.5 µM; in the test on SK-OV-3 ovarian it was 47.2 µM. Further, the TGI is greater than 100 µM in the test on OVCAR-5 ovarian; 38.3 µM in the test on SK-MEL-5 melanoma; greater than 100 µM with UACC-257 melanoma; greater than 100 µM in the test on HCT-15 colon; greater than 92.1 µM with HS 578T breast; greater than 96.1 µM with SK-MEL-2 melanoma. In addition, the TGI with SF-295 CNS and in the test with SK-OV-3 ovarian was greater than 100 µM in each case.
In the case of `CN(C)c1cccc(F)c1C(=O)NC(=O)Nc1ccc(Cl)cc1`, the TGI in the test with OVCAR-5 ovarian was greater than 100 µM; in the test on SK-MEL-5 melanoma, greater than 100 µM; in the test on UACC-257 melanoma it was greater than 100 µM; in the test with HCT-15 colon, greater than 31.5 µM; in the test on HS 578T breast, greater than 22.3 µM; in the test with SK-MEL-2 melanoma it was greater than 67.9 µM. Besides, the TGI with SF-295 CNS is greater than 21.4 µM; with SK-OV-3 ovarian, greater than 29.3 µM.
In the case of `CN(CCCCCl)P(=O)(OCc1ccc([N+](=O)[O-])o1)OCC1OC(n2cnc([N+](=O)[O-])c2N)C(O)C1O` (stereo not drawn), the GI50 was greater than 100 µM with OVCAR-5 ovarian; 37 µM in the test on SK-MEL-5 melanoma; greater than 100 µM in the test with UACC-257 melanoma; greater than 100 µM in the test on HCT-15 colon; greater than 100 µM with HS 578T breast; greater than 100 µM in the test on SK-MEL-2 melanoma. Moreover, the GI50 in the test with SF-295 CNS and with SK-OV-3 ovarian was greater than 100 µM throughout. Further, the TGI in the test on OVCAR-5 ovarian, in the test with SK-MEL-5 melanoma, with UACC-257 melanoma, with HCT-15 colon, in the test on HS 578T breast and in the test on SK-MEL-2 melanoma was greater than 100 µM each time. Besides, the TGI with SF-295 CNS and in the test with SK-OV-3 ovarian was greater than 100 µM throughout.
For `O=C(O)c1c(Br)c(Br)c(Br)c(Br)c1C1c2ccc(O)cc2Oc2cc(O)ccc21`, the TGI with OVCAR-5 ovarian, in the test with SK-MEL-5 melanoma, in the test on UACC-257 melanoma, in the test on HCT-15 colon, in the test with HS 578T breast and with SK-MEL-2 melanoma was greater than 100 µM in each case. Besides, the TGI in the test on SF-295 CNS and with SK-OV-3 ovarian was greater than 100 µM throughout.
As for `O=[N+]([O-])c1cc2no[n+]([O-])c2cc1N1CCCCC1`, the TGI in the test with OVCAR-5 ovarian is 24.8 µM; in the test on SK-MEL-5 melanoma, 41.7 µM; in the test on UACC-257 melanoma, greater than 36.1 µM; with HCT-15 colon, 11.9 µM; in the test with HS 578T breast, 72.5 µM; in the test with SK-MEL-2 melanoma it was 30.5 µM. Besides, the TGI with SF-295 CNS amounted to 34.8 µM; in the test on SK-OV-3 ovarian, 27.4 µM.
As to `COc1cnc2c(c1)C(=O)c1c-2n(CCCN2CCC(O)CC2)c(=O)c2cc(Cl)ccc12`, the GI50 in the test on OVCAR-5 ovarian was 1.63 µM; with SK-MEL-5 melanoma, 1.92 µM; in the test with UACC-257 melanoma, 12.2 µM; in the test on HCT-15 colon it was 1.17 µM; in the test with HS 578T breast it was 14.1 µM; in the test with SK-MEL-2 melanoma, 17.4 µM. The GI50 in the test on SF-295 CNS was 0.165 µM; with SK-OV-3 ovarian, 0.341 µM. The TGI in the test on OVCAR-5 ovarian came out at 3.43 µM; in the test on SK-MEL-5 melanoma, 20.4 µM; with UACC-257 melanoma, 26.2 µM; in the test with HCT-15 colon, 2.55 µM; in the test with HS 578T breast it was 37.5 µM; in the test on SK-MEL-2 melanoma, 33.4 µM. Further, the TGI stood at 1.67 µM in the test on SF-295 CNS and 17.5 µM in the test on SK-OV-3 ovarian.
As to `NC1(Cc2ccc(Cl)cc2)CCN(c2ncnc3[nH]ccc23)CC1`, the GI50 was 8.33 µM with OVCAR-5 ovarian; 14.9 µM with SK-MEL-5 melanoma; 13.1 µM in the test on UACC-257 melanoma; 5.64 µM in the test with HCT-15 colon; 2.17 µM with HS 578T breast; 14.6 µM with SK-MEL-2 melanoma. The GI50 in the test with SF-295 CNS was 1.48 µM; with SK-OV-3 ovarian, 2.35 µM. Besides, the TGI with OVCAR-5 ovarian is 43.6 µM; in the test with SK-MEL-5 melanoma it was 28.2 µM; in the test with UACC-257 melanoma, 26.5 µM; in the test with HCT-15 colon, 23.9 µM; in the test with HS 578T breast, 14.6 µM; in the test with SK-MEL-2 melanoma it was 31 µM. For the same compound, the results for the TGI in the test with SF-295 CNS and in the test on SK-OV-3 ovarian were 13.5 µM and 15.8 µM, respectively.
With `Cc1ccc(C2NC(=O)c3ccccc3N2)c(C)c1` (stereo not drawn), the TGI in the test on OVCAR-5 ovarian was greater than 86.5 µM; in the test with SK-MEL-5 melanoma, greater than 39.5 µM; in the test on UACC-257 melanoma, greater than 100 µM; with HCT-15 colon it was greater than 77 µM; in the test on HS 578T breast, 6.78 µM; in the test on SK-MEL-2 melanoma, 37.8 µM. Besides, the TGI with SF-295 CNS is greater than 35 µM; in the test on SK-OV-3 ovarian, greater than 100 µM.
`O=[N+]([O-])c1cc([N+](=O)[O-])c(Cl)cc1Cl`: the GI50 is 1.78 µM in the test with OVCAR-5 ovarian; 1.79 µM in the test on SK-MEL-5 melanoma; 0.594 µM in the test with UACC-257 melanoma; 1.35 µM with HCT-15 colon; 2.38 µM in the test on HS 578T breast; 1.83 µM in the test on SK-MEL-2 melanoma. The results for the GI50 with SF-295 CNS and in the test on SK-OV-3 ovarian were 1.75 µM and 1.78 µM, respectively. The TGI in the test on OVCAR-5 ovarian was found to be 3.6 µM; with SK-MEL-5 melanoma, 3.68 µM; with UACC-257 melanoma it was 2.04 µM; in the test on HCT-15 colon, 3.73 µM; in the test on HS 578T breast it was 7.56 µM; with SK-MEL-2 melanoma, 3.44 µM. Besides, the values for the TGI with SF-295 CNS and in the test with SK-OV-3 ovarian were 3.63 µM and 3.21 µM, respectively.
For `COc1cc2oc3c(c(=O)c2c(O)c1/C=C/C(C)C)C(C=C(C)C)Oc1cc(O)ccc1-3` (stereo not drawn), the TGI stood at 31.1 µM in the test with OVCAR-5 ovarian; 39.9 µM in the test with SK-MEL-5 melanoma; 32.6 µM in the test on UACC-257 melanoma; 31.7 µM in the test on HCT-15 colon; 38.2 µM in the test on HS 578T breast; 29.9 µM in the test on SK-MEL-2 melanoma. Also, the TGI turned out to be 31.4 µM with SF-295 CNS and 30.5 µM with SK-OV-3 ovarian.
`CCC(C)C(=O)OCC(=O)c1ccc(-c2ccccc2)cc1` (stereo not drawn): the TGI in the test with OVCAR-5 ovarian was greater than 100 µM; with SK-MEL-5 melanoma it was 72.6 µM; in the test on UACC-257 melanoma it was 87.4 µM; in the test on HCT-15 colon, 43.3 µM; with HS 578T breast it was greater than 100 µM; with SK-MEL-2 melanoma it was greater than 100 µM. Further, the TGI in the test on SF-295 CNS and in the test with SK-OV-3 ovarian was greater than 100 µM throughout.
`NC(=O)c1sc(-n2cnc3cc(C(F)(F)F)ccc32)cc1OCc1ccccc1Br`: the GI50 is greater than 25 µM with OVCAR-5 ovarian; greater than 16.5 µM in the test with SK-MEL-5 melanoma; greater than 25 µM in the test on UACC-257 melanoma; greater than 25 µM with HCT-15 colon; 12.4 µM in the test with HS 578T breast; greater than 25 µM in the test on SK-MEL-2 melanoma. Also, the GI50 in the test with SF-295 CNS is greater than 25 µM; in the test with SK-OV-3 ovarian it was 9.07 µM. Moreover, the TGI in the test with OVCAR-5 ovarian, in the test with SK-MEL-5 melanoma, in the test with UACC-257 melanoma, in the test on HCT-15 colon, in the test on HS 578T breast and in the test with SK-MEL-2 melanoma was greater than 25 µM throughout. The TGI in the test on SF-295 CNS and in the test on SK-OV-3 ovarian was greater than 25 µM in each case.

The record behind these values is PubChem BioAssay (NCI).
